Measurements reported in publication PMC12559310, “Tumor-targeted top1 inhibitor delivery with optimized parp inhibition in advanced solid tumors: a phase i trial of gapped scheduling” (Nature Communications, 2025).
“And” between values parts separate entries of the source, which are not always exact repeats. Equal entries are not always repeated. Where two headings read alike, the source gives them in different places.

Tests used:
[1] = tested on: patients with solid tumors; settings: cited from earlier work
SCLC cell lines = tested on: SCLC cell lines; parameters: method as in protocol [5]; settings: pre-clinical models of SCLC; ref protocol [5]; cited from earlier work
[2] = tested on: xenografts and patient-derived xenografts (PDXs); parameters: method as in protocol [7]; settings: animal models; ref protocol [7]; cited from earlier work
[3] = tested on: platinum-sensitive SCLC relapse; parameters: method as in protocol [8]; settings: preliminary data, ref protocol [8], cited from earlier work
γ-H2AX [4] = assay: γ-H2AX intensity in plucked hair bulbs; format: in vivo, human; settings: for gamma-H2AX intensities / excess gamma-H2AX intensities (minus D1) / gamma-H2AX intensities minus D1, averages / gamma-H2AX intensities, averages: plucked hairs; for gamma-H2AX intensities / excess gamma-H2AX intensities (minus D1): D3 (48 h after CRLX101, before olaparib); for gamma-H2AX intensities minus D1, averages / gamma-H2AX intensities, averages: D3 (before olaparib)
Experimental: (§1) PBMCs were isolated by Ficoll gradient, washed 3 times with phosphate-buffered saline (PBS), fixed in 2% paraformaldehyde (PFA) for 20 min, washed 3 times with PBS, and spotted on slides by cytospin (800 rpm/4 min). PBMCs on slides were permeabilized with pre-chilled ethanol 70% and slides were stored at 4 °C overnight. […] Finally, slides were incubated at 37 °C for 5 min with a solution containing RNAse A (0.5 mg/mL) and propidium iodide (PI) (5 µg/mL). Slides were then mounted with mounting medium containing PI (Vectashield, Vector Laboratories, Inc., Burlingame, CA, USA) and sealed with nail polish.
Hair bulbs were collected in 1.5 microtubes filled with cold PBS and placed on ice directly after plucking. Plucked hairs were then fixed for 20 min at room temperature with 2% PFA in 1.5 microtubes. Following 3 washes with 1 ml PBS, plucked hairs were imaged, and anagen hair bulbs hairs were selected for γ-H2AX detection. Samples were permeabilized with pre-chilled ethanol 70%, washed, and stored at 4 °C until use. γ-H2AX detection was performed as described for PBMCs, but times for blocking and staining procedures were increased by 50%. Washes were performed by 3 washes with PBS. After incubation with the RNAse and PI solution at 37 °C for 30 min, hair shafts were detached from the bulbs by using a razor blade, and hair bulbs were mounted between a slide and a coverslip with mounting medium containing PI and sealed with nail polish.
(§2) Samples were imaged by laser scanning confocal microscopy (Zeiss LSM 710 NLO). Optical sections through PBMCs and hair bulbs were combined in a maximum projection using the Zeiss Zen software. The foci were counted in PBMCs using the FociCounter software[55] by analyzing at least 200 cells, while γ-H2AX intensities were measured in the extremity of the hair bulbs with the Image J software. The above antibodies have been used in previous studies[56],[57].

[5] = tested on: patients with advanced solid tumors; assay: Phase I dose escalation (3 + 3 design): DLTs and MTD/RP2D of CRLX101 plus olaparib; format: in vivo, human; settings: CRLX101 12 mg/m2 combined with Olaparib 250 tab bid; % of single-agent MTD; Current study
Excerpt: Olaparib tablets were given at escalating doses across cohorts (as shown in Fig. 1), administered twice daily on days 3–13 and 17–26 of the treatment cycle.
A standard 3 + 3 design was used for dose escalation. […] DLTs were based on toxicities observed during the first cycle. […] Study treatment was discontinued if there was a > 3-week delay in reinstitution of treatment due to drug-related toxicity during a cycle. Dose reductions were allowed for toxicities. A maximum of two dose reductions were allowed. Dose re-escalation was not allowed.

[6] = tested on: patients with advanced solid malignancies; settings: cited from earlier work
γ-H2AX [7] = assay: γ-H2AX foci per cell in PBMCs; format: in vivo, human; settings: for γ-H2AX foci per cell in PBMCs Minus D1, averages (Fig 3G) / γ-H2AX foci per cell in PBMCs, averages (Fig 3G): D3 (before olaparib); for γ-H2AX, AVERAGES foci per cell / γ-H2AX, AVERAGES excess foci per cell: PBMCs; for γ-H2AX, AVERAGES foci per cell: D3 (48 h after CRLX101, before olaparib)
Experimental: as §1, §2

[8] = phase 1/2a patients receiving the MTD (n=44), no grade 4

## CCc1c2c(nc3ccc(OC(=O)N4CCC(N5CCCCC5)CC4)cc13)-c1cc3c(c(=O)n1C2)COC(=O)[C@]3(O)CC [Irinotecan]
[1]; Irinotecan 100 mg/m2 with Veliparib 40 bid d1-14, ref LoRusso, Clin Can Res, 2016
  Topo1i % of MTD: 80%
[1]; Irinotecan 125 mg/m2 q2w with Olaparib 50 mg bid d1-5, ref Chen, Inv New Drugs, 2016
  Topo1i % of MTD: 69%
[1]; Irinotecan 200 mg/m2 q3w with Olaparib 50 mg qd d1-21, ref Chen, Inv New Drugs, 2016
  Topo1i % of MTD: 57%

## CNCc1ccc(-c2[nH]c3cc(F)cc4c3c2CCNC4=O)cc1 [rucaparib]
SCLC cell lines
  single agent activity: striking single agent activity in a majority of SCLC cell lines tested

## Cn1ncnc1[C@H]1c2n[nH]c(=O)c3cc(F)cc(c23)N[C@@H]1c1ccc(F)cc1 [talazoparib]
SCLC cell lines
  single agent activity: striking single agent activity in a majority of SCLC cell lines tested
[2]
  anti-tumor activity as a single agent: comparable or superior to cisplatin
[3]; of 23 patients
  RECIST confirmed partial responses, patients: 2
  stable disease lasting more than 24 weeks, patients: 3
[3]
  clinical benefit rate: 25%

## CC[C@@]1(O)C(=O)OCc2c1cc1n(c2=O)Cc2cc3c(CN(C)C)c(O)ccc3nc2-1 [topotecan]
[1]; Topotecan 0.6 mg/m2/d1-5 with Veliparib 10 bid d1-5, % of single-agent MTD, ref Kummar, Can Res, 2011
  Topo1i % of MTD: 40%
[1]; Topotecan 1 mg/m2/d1-3 with Olaparib 100 mg bid d1-21, ref Samol, Inv New Drugs, 2012
  Topo1i % of MTD: 40%
[1]; Topotecan 3 mg/m2 d2,9,16 with Veliparib 300 mg bid, ref Hendrickson, Clin Can Res, 2017
  Topo1i % of MTD: 75%

## C[C@]1(c2nc3c(C(N)=O)cccc3[nH]2)CCCN1 [veliparib]
[1]; Veliparib 50 mg BID with Liposomal Irinotecan 70 mg/m2 q2w, ref LaRose, Oncologist, 2023
  PARPi % of MTD: 13%
[1]; Veliparib 300 mg bid with Topotecan 3 mg/m2 d2,9,16, ref Hendrickson, Clin Can Res, 2017
  PARPi % of MTD: 75%
[1]; Veliparib 10 bid d1-5 with Topotecan 0.6 mg/m2/d1-5, % of single-agent MTD, ref Kummar, Can Res, 2011
  PARPi % of MTD: 3%
[1]; Veliparib 10 bid d1-5 with Topotecan 0.6 mg/m2/d1-5, % of single-agent MTD, ref Kummar, Can Res, 2011, listed as Veliparib
  PARPi % of MTD: ≈ 3%
[1]; Veliparib 40 bid d1-14 with Irinotecan 100 mg/m2, ref LoRusso, Clin Can Res, 2016
  PARPi % of MTD: 10%

## Poly-CD-PEG-Camptothecin [CRLX101]
γ-H2AX [4]; Day 3 (48 h after CRLX101, pre-olaparib) vs pre-treatment, hair follicles and PBMC
  γH2AX signal after CRLX101 alone: increase in γH2AX signal
γ-H2AX [4]; DL1, average per patient
  gamma-H2AX intensities: 4.816
γ-H2AX [4]; DL1, per patient
  excess gamma-H2AX intensities (minus D1): 2.945
γ-H2AX [4]; DL2, average per patient
  gamma-H2AX intensities: 5.391 and 2.136 and 5.3349 and 5.978 and 6.804
γ-H2AX [4]; DL2, per patient
  excess gamma-H2AX intensities (minus D1): 2.273 and 0.6534 and 4.441 and 4.582 and 4.99
γ-H2AX [4]; DL3, average per patient
  gamma-H2AX intensities: 4.982 and 13.4338 and 12.7188
γ-H2AX [4]; DL3, per patient
  excess gamma-H2AX intensities (minus D1): 4.135 and 12.5502 and 12.1828
γ-H2AX [4]; DL4, average per patient
  gamma-H2AX intensities: 3.4222 and 3.662 and 5.428
γ-H2AX [4]; DL4, per patient
  excess gamma-H2AX intensities (minus D1): 2.309 and 3.241 and 5.235
γ-H2AX [4]; DL4R, average per patient
  gamma-H2AX intensities: 4.487 and 2.444 and 10.191 and 5.772
γ-H2AX [4]; DL4R, per patient
  excess gamma-H2AX intensities (minus D1): 3.986 and 2 and 9.666 and 4.568
γ-H2AX [4]; DL1
  gamma-H2AX intensities minus D1, averages: 2.945
γ-H2AX [4]; DL1, average across patients
  gamma-H2AX intensities, averages: 4.816
γ-H2AX [4]; DL2
  gamma-H2AX intensities minus D1, averages: 3.388
γ-H2AX [4]; DL2, average across patients
  gamma-H2AX intensities, averages: 5.129
γ-H2AX [4]; DL3
  gamma-H2AX intensities minus D1, averages: 9.623
γ-H2AX [4]; DL3, average across patients
  gamma-H2AX intensities, averages: 10.3781
γ-H2AX [4]; DL4
  gamma-H2AX intensities minus D1, averages: 0.8727
γ-H2AX [4]; DL4, average across patients
  gamma-H2AX intensities, averages: 4.171
γ-H2AX [4]; DL4R
  gamma-H2AX intensities minus D1, averages: 3.856
γ-H2AX [4]; DL4R, average across patients
  gamma-H2AX intensities, averages: 5.7233
[5]
  Topo1i % of MTD: 80%
[6]; 16 of a subset of NSCLC patients
  Best overall response stable disease: 73%
[6]; 28 patients treated at the MTD
  Best overall response stable disease: 64%
[6]; CRLX101 monotherapy, bi-weekly, IV over 60 min, ref protocol [15]
  MTD: 15 mg/m2
[6]; patients treated at the MTD
  Median progression-free survival (PFS): 3.7 months
[6]; [8]
  Grade 3 fatigue: 9%
  Grade 3 neutropenia: 9%
[6]; subset of NSCLC patients
  Median progression-free survival (PFS): 4.4 months
γ-H2AX [7]; DL1
  γ-H2AX foci per cell in PBMCs Minus D1, averages (Fig 3G): 0.009559
γ-H2AX [7]; DL1, average across patients
  γ-H2AX foci per cell in PBMCs, averages (Fig 3G): 0.2861
γ-H2AX [7]; DL2
  γ-H2AX foci per cell in PBMCs Minus D1, averages (Fig 3G): -0.04097
γ-H2AX [7]; DL2, average across patients
  γ-H2AX foci per cell in PBMCs, averages (Fig 3G): 0.07487
γ-H2AX [7]; DL3
  γ-H2AX foci per cell in PBMCs Minus D1, averages (Fig 3G): 0.07028
γ-H2AX [7]; DL3, average across patients
  γ-H2AX foci per cell in PBMCs, averages (Fig 3G): 0.3286
γ-H2AX [7]; DL4
  γ-H2AX foci per cell in PBMCs Minus D1, averages (Fig 3G): 0.05059
γ-H2AX [7]; DL4, average across patients
  γ-H2AX foci per cell in PBMCs, averages (Fig 3G): 0.1354
γ-H2AX [7]; DL4R
  γ-H2AX foci per cell in PBMCs Minus D1, averages (Fig 3G): 0.1138
γ-H2AX [7]; DL4R, average across patients
  γ-H2AX foci per cell in PBMCs, averages (Fig 3G): 0.1974
γ-H2AX [7]; DL1, per patient
  γ-H2AX, AVERAGES foci per cell: 0.4504 foci per cell and 0.1217 foci per cell
γ-H2AX [7]; DL2, per patient
  γ-H2AX, AVERAGES foci per cell: 0.06098 foci per cell and 0.03645 foci per cell and 0.07605 foci per cell and 0.04348 foci per cell and 0.1574 foci per cell
γ-H2AX [7]; DL3, per patient
  γ-H2AX, AVERAGES foci per cell: 0.574 foci per cell and 0.2632 foci per cell and 0.1488 foci per cell
γ-H2AX [7]; DL4, per patient
  γ-H2AX, AVERAGES foci per cell: 0.05652 foci per cell and 0.07904 foci per cell and 0.3651 foci per cell and 0.04096 foci per cell
γ-H2AX [7]; DL4R, per patient
  γ-H2AX, AVERAGES foci per cell: 0.05895 foci per cell and 0.2317 foci per cell and 0.2655 foci per cell and 0.1875 foci per cell and 0.2432 foci per cell
γ-H2AX [7]; D3 (before olaparib) minus D1, DL1, per patient
  γ-H2AX, AVERAGES excess foci per cell: 0.02853 foci per cell and -0.009408 foci per cell
γ-H2AX [7]; D3 (before olaparib) minus D1, DL2, per patient
  γ-H2AX, AVERAGES excess foci per cell: 0.01208 foci per cell and -0.0007052 foci per cell and -0.1169 foci per cell and -0.007436 foci per cell and -0.09186 foci per cell
γ-H2AX [7]; D3 (before olaparib) minus D1, DL3, per patient
  γ-H2AX, AVERAGES excess foci per cell: 0.159 foci per cell and 0.113 foci per cell and -0.06118 foci per cell
γ-H2AX [7]; D3 (before olaparib) minus D1, DL4, per patient
  γ-H2AX, AVERAGES excess foci per cell: -0.04714 foci per cell and 0.07394 foci per cell and 0.1683 foci per cell and 0.007302 foci per cell
γ-H2AX [7]; D3 (before olaparib) minus D1, DL4R, per patient
  γ-H2AX, AVERAGES excess foci per cell: 0.006793 foci per cell and 0.06366 foci per cell and 0.2087 foci per cell and 0.1048 foci per cell and 0.1705 foci per cell
